PubChem BioAssay (NCI)
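Cultured in 96-well plates, cells were exposed to test compound for 48 hours across five concentrations. TGI marks complete inhibition of growth.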

What was measured:
Assay in all cases: NCI-60 cell line screen, 48 h
[1] = test system: 786-0 renal
[2] = test system: A549 NSCLC
[3] = test system: CAKI-1 renal
[4] = test system: HL-60(TB) leukemia
[5] = test system: HS 578T breast
[6] = test system: KM12 colon
[7] = test system: NCI/ADR-RES ovarian
[8] = test system: OVCAR-8 ovarian
[9] = test system: SK-MEL-28 melanoma
[10] = test system: SN12C renal
[11] = test system: SR leukemia

Compound | TGI [1] [µM] | TGI [2] [µM] | TGI [3] [µM] | TGI [4] [µM] | TGI [5] [µM] | TGI [6] [µM] | TGI [7] [µM] | TGI [8] [µM] | TGI [9] [µM] | TGI [10] [µM] | TGI [11] [µM]
Cc1ccc(S(=O)(=O)N2CCN(CCO)CCN(S(=O)(=O)c3ccc(C)cc3)CCN(CCO)CC2)cc1 | 67 | 57 | > 100 | 37.3 | 93.4 | 38.6 | 38.3 | > 100 | 30.2 | > 100 | 27.8
O=C(NCc1ccccc1)c1c(O)c2ccccc2[nH]c1=O | > 100 | > 100 | > 100 | > 100 | > 100 | > 100 | > 100 | > 100 | > 100 | > 100 | > 100
O=C(C=P(c1ccccc1)(c1ccccc1)c1ccccc1)c1ccc(-c2ccc(F)cc2F)cc1 | 13.7 | 11.4 | 5.55 | 5.13 | 28.3 | 13.8 | 13.2 | – | 8.14 | 5.31 | 7.55
COC(=O)C(C(=O)OC)C1CC(=O)c2c(Br)sc(Br)c21 (stereo not drawn) | > 100 | 68.8 | 21.1 | 49.9 | 85.7 | > 100 | 37.1 | 37.8 | 34.2 | 32.4 | 34.6
CCCCCCCCCCCCCCCCNc1ccn(C2CC(OP(=O)(O)OCC3OC(n4cc(CC)c(=O)[nH]c4=O)CC3O)C(CO)O2)c(=O)n1 (stereo not drawn) | > 100 | 55.2 | > 100 | 20.2 | 67.1 | 29.6 | 84.9 | 43.6 | 68.3 | > 100 | 47.2
O=C(Nc1nc(C23CC4CC(CC(C4)C2)C3)cs1)c1cc2cc([N+](=O)[O-])ccc2oc1=O | 45.2 | > 100 | > 100 | > 100 | 67.9 | > 100 | > 100 | > 100 | > 100 | > 100 | > 100
COc1ccc(C2NC(=O)Nc3c2c(=O)oc2c3ccc3ccccc32)cc1 (stereo not drawn) | > 100 | > 100 | > 100 | > 100 | > 100 | > 100 | > 100 | > 100 | > 100 | > 100 | > 100
CSc1ccccc1P(CCP(c1ccccc1SC)c1ccccc1SC)c1ccccc1SC | > 100 | > 100 | > 100 | 16.3 | > 100 | > 100 | > 100 | > 100 | > 100 | > 100 | > 42.6
Cc1nnc(CC#N)n1NC(=O)CC#N | > 100 | > 100 | > 100 | > 100 | > 100 | > 100 | > 100 | > 100 | > 100 | > 100 | > 100
CC1(O)C(=O)OC2CC([C@]3(O)CCC4[C@@H]5C[C@H]6O[C@]67[C@@H](O)C=CC(=O)[C@]7(C)C5CC[C@@]43C)C1(C)C2 (stereo partly drawn) | 25.6 | > 100 | 25.4 | 19.9 | > 96.7 | > 64.1 | > 100 | > 100 | 26 | 63.4 | 10.6
CSC1NNC2(C(=O)N1)c1ccccc1-c1ccccc12 (stereo not drawn) | > 10 | > 10 | > 10 | > 10 | > 10 | > 10 | > 10 | > 10 | > 10 | > 10 | > 10
Cc1cccc2c1C(=O)[C@@](C)([C@]1(C)Nc3cccc(C)c3C1=O)N2 | > 100 | > 100 | > 100 | 7.9 | > 100 | > 100 | > 100 | > 100 | > 100 | > 100 | > 100
C/C(=C\CNc1nc(Cl)nc2nc[nH]c12)CO | > 100 | > 100 | > 100 | > 100 | > 100 | > 100 | > 100 | > 100 | > 100 | > 100 | > 100
CCCCCCCCC[n+]1cccc(C2C(C(=O)OCC)=C(C)NC(C)=C2C(=O)OCC)c1 | 26.9 | 36.1 | 28.2 | 6.25 | 10.7 | 4.21 | > 100 | 11.2 | 7.28 | 17.5 | > 25.3
Cn1c(=O)c2[nH]c(CCC(=O)O)nc2n(C)c1=O | > 100 | > 100 | > 100 | > 100 | > 100 | > 100 | > 100 | > 100 | > 100 | > 100 | > 100
c1ccc2c(c1)c1c3n2-c2cc(on2)C3CCC1 (stereo not drawn) | > 100 | > 100 | > 100 | > 100 | > 100 | > 100 | > 100 | > 100 | > 100 | > 100 | > 100
Nc1ccc(-c2nc3ccccc3s2)cc1 | 29.7 | 63.2 | > 67.8 | 61.6 | > 84 | 47.6 | 56.4 | 17.7 | 33 | 43.5 | 62.2
COc1cc2c(cc1O)CC[C@@H]1C2CC[C@@]2(C)C1CC[C@@H]2O (stereo partly drawn) | > 100 | > 100 | > 97.4 | 8.18 | 7.63 | 61.8 | 2.73 | 39.4 | > 100 | > 82 | 5.44
Cc1nn(-c2ccccn2)c2c1C(SC#N)=C(C=O)CC2 | 25.1 | 46 | 19 | 16 | > 100 | 32.7 | 45.5 | 30.8 | 45.9 | 40.3 | 34.3

Compound | TGI [1] [µM] | TGI [2] [µM] | TGI [3] [µM] | TGI [4] [µM] | TGI [5] [µM] | TGI [6] [µM] | TGI [7] [µM] | TGI [8] [µM] | TGI [9] [µM] | TGI [10] [µM] | TGI [11] [µM]
COC(=O)C1[C@H](C(=O)OC)C1(Br)CBr (stereo partly drawn) | > 100 | > 100 | > 100 | > 100 | > 100 | > 100 | > 100 | > 100 | > 100 | > 100 | > 100
CCOC(=O)c1cc(-c2ccn(C(C)=O)c2)c(-c2cc(C)co2)[nH]1 | > 100 | > 100 | > 100 | > 100 | > 100 | > 100 | > 100 | > 100 | > 100 | > 100 | > 100
C=C1C(=O)O[C@H]2C/C(C=O)=C\[C@H]3O[C@H]3/C(COC(=O)C(C)C)=C/CC12 (stereo partly drawn) | 10.7 | 37.3 | 7.31 | 5.54 | 22 | 22.7 | 33.8 | 13.3 | 14.8 | 7.11 | 7.95
C=CCn1c(=O)c2ccccc2[n+]2c(-c3cccc([N+](=O)[O-])c3)csc12 | > 100 | > 100 | > 100 | 58.2 | > 100 | > 100 | 68.2 | > 100 | > 100 | > 100 | 98.3
Cc1nnc2sc(-c3ccc([N+](=O)[O-])o3)nn12 | 22 | > 100 | 22.3 | 8.58 | > 100 | 33.5 | 39 | 27.5 | – | 29.5 | 59.6
COC(=O)C[C@H](CCSC)NC(=O)C[C@H](CCSC)NC(=O)C[C@H](CCSC)NC(=O)OC(C)(C)C | > 100 | > 100 | > 100 | > 100 | > 100 | > 100 | > 100 | > 100 | > 100 | > 100 | > 100
C[C@@H]1OCC(O)C([C@H]2OC(c3ccccc3)=N[C@H]2CO)O1 (stereo partly drawn) | > 100 | > 100 | > 100 | > 100 | > 100 | > 100 | > 100 | > 100 | > 100 | > 100 | > 100
C=C1C(=O)O[C@H]2[C@H]([C@H](C)CCCC(C)=O)O[C@H]([C@@]3(C)CCC(=O)O3)C[C@@H]12 | > 100 | > 100 | 54.3 | > 100 | > 100 | > 100 | > 100 | > 100 | > 100 | > 100 | > 100
Cn1c(=O)c2sc3cc4c(cc3c2c2ccccc21)sc1c(=O)n(C)c2ccccc2c14 | > 100 | > 100 | > 100 | > 100 | > 100 | > 100 | > 100 | > 100 | > 100 | > 100 | > 100
CCOC(=O)c1cn(C)nc1N/C(C)=C\C(=O)c1ccccc1 | > 100 | > 100 | > 100 | > 100 | > 100 | > 100 | > 100 | > 100 | > 100 | > 100 | > 100
COC(=O)c1c(C#C[Si](C)(C)C)c(C#C[Si](C)(C)C)c(C#C[Si](C)(C)C)c(C#C[Si](C)(C)C)c1C(=O)OC | > 100 | > 100 | > 100 | > 100 | > 100 | > 100 | > 100 | > 100 | > 100 | > 100 | > 100
N#Cc1c(-c2ccc(Cl)cc2)cc(-c2nc3ccccc3[nH]2)nc1N | 23.3 | 20.9 | 46.6 | 58.7 | 73.3 | 25.1 | 48.4 | 49.5 | 36 | 27.5 | 35.1
CCOC(=O)CCC(C(=O)OCC)n1nnc2cc(Nc3c(C)[n+]([O-])c4ccc(Cl)cc4[n+]3[O-])ccc21 (stereo not drawn) | > 100 | > 100 | > 100 | > 100 | > 100 | > 100 | > 100 | > 100 | – | > 100 | > 100
COc1ccc(NS(=O)c2cccc(C)c2)cc1 (stereo not drawn) | > 100 | > 100 | > 100 | > 100 | > 100 | > 100 | > 100 | > 100 | > 100 | > 100 | > 100
O=C(NCc1cccnc1)C(=O)NCc1cccnc1 | > 100 | > 100 | > 100 | 64.7 | > 100 | > 100 | > 100 | > 100 | > 100 | > 100 | > 100
CN(C)C=Nc1nncc2n[nH]nc12 | > 100 | > 100 | > 100 | > 100 | > 100 | > 100 | > 100 | > 100 | > 100 | > 100 | > 100
COc1ccc(C2=NNC(=O)c3ccccc3N2c2nc(-c3cccs3)nc3ccc(Br)cc23)cc1 | 82 | > 100 | > 100 | > 100 | > 100 | > 100 | 62.4 | > 100 | > 100 | > 100 | > 100
Cc1cccc(C(O)c2cccnc2)c1O (stereo not drawn) | – | > 100 | > 100 | > 100 | > 100 | > 100 | > 100 | > 100 | > 100 | > 100 | > 100
